Laboratory results taken from patent publication US20060247862A1, “Determining cell cycle phase data” (priority 2003, published 2006).

Tested on: U2OS cells
Assay: Effect of cell cycle blocking agents on GFP fluorescence from cell cycle phase marker using transiently transfected cells
Format: cell-based
Conditions: U2OS cells transiently transfected with cyclin B1 promoter/D-box/CRS-GFP construct; 24 hours exposure; compared to control cells (culture media alone); confocal imaging
Procedure: U2OS cells (ATCC HTB-96) were cultured in wells of a 96 well microtitre plate. Cells were transfected with a cell cycle reporter construct prepared according to Example 1, comprising a cyclin B1 promoter operably linked to sequences encoding the cyclin B1 D-box, the cyclin B1 CRS, and GFP in a pCORON4004 vector (Amersham Biosciences) using Fugene 6 (Roche) as the transfection agent.
Following 24 hours of culture, cells were exposed to the specific cell cycle blockers mimosine (blocks at G1/S phase boundary) or demecolcine (blocks in M phase). Control cells were exposed to culture media alone.
Cells were incubated for a further 24 hours and then analysed for nuclear GFP expression using a confocal scanning imager with automated image analysis (IN Cell Analysis System, Amersham Biosciences).

SMILES	GFP fluorescence (nuclear GFP expression) from cell cycle phase marker
NC(Cn1ccc(=O)c(O)c1)C(=O)O (centres unmarked) [mimosine]	decreased fluorescence compared to control cells
CN[C@H]1CCc2cc(OC)c(OC)c(OC)c2-c2ccc(OC)c(=O)cc21 [demecolcine]	increased fluorescence compared to control cells
